This note sets out measurements from patent US20260174854A1, “Systems And Methods For Imaging Diverse Pathogenic Bacteria In Vivo With [18F]Fluoromannitol Positron Emission Tomography” (priority 2022, published 2026).

One assay relates to live strain of bacteria. Briefly: murine myositis model, infection vs sterile inflammation, PET SUV / Patlak / CFU correlation (strain not stated at the result). The format is in vivo, mice. The source says: (§1) Referring now to FIGS. 2A-2D, a murine myositis model of musculoskeletal infection was used to determine whether [^18F]FMtl could differentiate sterile inflammation from infection in vivo by inoculating the right triceps brachii with a live strain of bacteria and the left triceps brachii with 10× heat-killed bacteria to generate an inflammatory response.
To quantify PET signal, volumes of interest (VOIs) were generated in the upper limbs of mice using CT for anatomical localization. […] Biodistribution studies were performed in successive cohorts of mice over 3 hours to determine dosimetry of [^18F]FMtl. […] Static PET SUV were correlated with bacterial colony-forming units (CFU) from excised tissue to determine sensitivity of [^18F]FMtl (see FIG. 2C), indicating [^18F]FMtl can reliably detect as little as 5 log10 (CFU/mL) of bacteria in vivo by SUV. It was also investigated whether parametric mapping could increase bacterial sensitivity of [^18F]FMtl in vivo, as Patlak slope (K,) is a quantitative measure of rate of uptake in tissue, rather than SUV, which is semi-quantitative and cannot delineate signal from blood pool contamination and tissue. Parametric imaging improved the bacterial sensitivity of [^18F]FMtl by roughly 20-fold (log10 CFU=1.3; 1.7×10^6 improved to […]) (see FIG. 2D).

Assay [1] relates to S. aureus. Briefly: competitive uptake assay of [^18F]FMtl in the presence of unlabeled D-mannitol. It is filed as cell-based. The note with it: co-incubation in S. aureus cultures, FIG. 1C. How it is done:
FIG. 1C is a graph showing a competitive uptake assay of [^18F]FMtl in the presence of unlabeled D-mannitol in S. aureus;
(§2) Accumulation of [^18F]FMtl was also evaluated in a broad panel of bacterial strains.

Assay [2] relates to S. aureus. Kind of assay: in vitro accumulation of radiotracer in S. aureus cultures (gamma counts). The note with it: for accumulation in S. aureus cultures, tracer comparison: FIG. 1D, FMtl vs FDS P<0.001. It is filed as cell-based. How it is done:
as §2

Assay [3] relates to S. aureus. Kind of assay: mixed infection (polymicrobial) myositis model, PET/CT, S. aureus-infected left triceps brachii. The format is in vivo, mice. Particulars: for postmortem gamma counting of tissues: S. aureus-infected muscle. An excerpt: (§3) Referring now to FIGS. 3A-3B, the sensitivity of [^18F]FMtl compared to [^18F]FDS was also investigated in a mixed infection (polymicrobial) model. [^18F]FDS has shown remarkable specificity for Enterobacteriaceae in vivo, but has limited to no sensitivity toward gram-positive and other gram-negative organisms. Mice were inoculated with live E. coli (8.4×10^6 CFU) and S. aureus (8.8×10^6 CFU) in the right and left triceps brachii, respectively.

Assay [4] has as its system E. coli. Kind of assay: mixed infection (polymicrobial) myositis model, PET/CT, E. coli-infected right triceps brachii. It is filed as in vivo, mice. Particulars: for postmortem gamma counting of tissues: E. coli-infected muscle; for E. coli SUV, [^18F]FMtl versus [^18F]FDS: P=0.11.
From the text: as §3

Assay [5] concerns E. coli. Kind of assay: in vitro accumulation of radiotracer in E. coli cultures (gamma counts). It is filed as cell-based. How it is done: as §2
Assay [6] has as its system broad panel of bacterial strains. Kind of assay: uptake in a broad panel of bacterial strains (pathogens of clinical interest). Particulars: 60 minutes of incubation, FIG. 1B. The format is cell-based. How it is done: FIG. 1B is a graph showing uptake of [^18F]FMtl in pathogens of clinical interest, determined at 60 minutes of incubation;
as §2

Assay [7] concerns S. aureus. Briefly: murine myositis model, live vs 10× heat-killed bacteria, PET imaging (S. aureus). The format is in vivo, mice. The note with it: gram-positive strain; infected vs inflamed triceps brachii, FIG. 2A.
From the text: as §1

Assay [8] concerns E. coli. Briefly: murine myositis model, live vs 10× heat-killed bacteria, PET imaging (E. coli). It is filed as in vivo, mice. Particulars: gram-negative strain; infected vs inflamed triceps brachii, FIG. 2A.
From the text: as §1

Assay [9] relates to S. aureus. Kind of assay: serial [^18F]FMtl PET during vancomycin treatment of S. aureus myositis. The format is in vivo, mice. The note with it: FIG. 7A. How it is done: A growing incidence of antimicrobial resistance in many bacterial pathogens is a serious concern, as treatment failure is a major threat to global health. Inappropriate antibiotic use is also the primary driver of antibiotic resistance, which places undue risk onto patients for adverse events such as allergic reactions and C. difficile infection. […] Mice were inoculated with S. areus in the right triceps brachii and imaged 8 hours post-infection with [^18F]FMtl, prior to initiation of vancomycin treatment (100 mg/kg every 8 hours, IP) and subsequently imaged at 24 and 72 hours post-treatment. […] The accumulation of [^18F]FMtl was further investigated in a panel of bacterial isolates from infected combat wounds of military service members (see FIG. 7B).

Another assay deals with A. baumannii. Briefly: laceration wound model infected with A. baumannii, [^18F]FMtl PET. It is filed as in vivo. Particulars: A. baumannii and several other ESKAPE pathogens. An excerpt: In an exemplary embodiment, [^18F]FMtl was able to differentiate sterile inflammation and bacterial infection resulting from S. aureus and E. coli in vivo in a murine myositis model using PET imaging. Exemplary embodiments of the present disclosure were extended to a laceration wound model infected with A. baumannii, an important pathogen in the nosocomial and battlefield setting. […] [^18F]FMtl PET was also able to monitor therapeutic efficacy of vancomycin against S. aureus in vivo. The ease of production of [^18F]FMtl facilitates wide dissemination from any radiopharmacy.

“Also recorded” adds a separate entry of the source.

As to “2-[^18F]fluoro-2-deoxy-glucose [[^18F]FDG, reference compound]”, the “differences in SUV between sites of infection and inflammation” value in the assay on live strain of bacteria (FIG. 2B) is “unable to demonstrate significant differences in SUV”. Besides, the “ability to distinguish infection from inflammation (PET)” value in the assay on live strain of bacteria (infected vs inflamed triceps brachii) is on record as “unable to distinguish infection from inflammation”.
For `OC[C@@H](O)[C@@H](O)[C@H](O)[C@H](O)CO` [D-mannitol], in the assay on S. aureus [1], the “concentration of D-mannitol that blocked [^18F]FMtl accumulation in bacteria” value was ≥ 10 µg/mL.
As for `OC[C@@H](O)[C@@H](O)[C@H](O)[C@@H]([18F])CO` [[^18F]FDS, 2-[^18F]fluoro-2-deoxy-sorbitol], the “accumulation in S. aureus cultures, tracer comparison” value in the assay with S. aureus [2] is listed as “not significantly different to negative control”. Further, the “postmortem gamma counting of tissues” value with S. aureus [3] and with E. coli [4] was “only accumulated in E. coli-infected muscle” throughout. In addition, in the assay with E. coli [4] (P=0.007), the “specificity, E. coli compared to S. aureus infection” value is listed as “high specificity for E. coli compared to S. aureus”. For the same compound, the “E. coli SUV, [^18F]FMtl versus [^18F]FDS” value in the assay on E. coli [4] is recorded as “no significant differences”.
In the case of `OC[C@@H](O)[C@@H](O)[C@H](O)[C@H]([18F])CO` [[^18F]FMtl, [^18F]fluoromannitol], the “accumulation in S. aureus cultures, tracer comparison” value in the assay with S. aureus [2] is on record as “significantly higher”. Also, in the assay on S. aureus [2] (P=0.64), the “accumulation in S. aureus versus E. coli cultures” value is “not significantly different”. Further, the “incorporation of tracer over time” value in the assay on S. aureus [2] (heat-killed bacteria) is on record as “not heat-killed bacteria”; in the assay on S. aureus [2] (live S. aureus cultures, FIG. 1A) it was “readily incorporated”; in the assay with E. coli [5] (heat-killed bacteria), “not heat-killed bacteria”; in the assay with E. coli [5] (live E. coli cultures), “readily incorporated”. In the assay with E. coli [5] (FIG. 1D), the “accumulation in E. coli cultures, tracer comparison” value is on record as “accumulated”. Further, the “strains excepted from rapid and significant accumulation” value in [6] is “P. aeruginosa and E. faecium”. The “accumulation in bacterial strains” value in assay [6] (all strains tested except P. aeruginosa and E. faecium) was “rapid and significant accumulation”. For the same compound, the “accumulation at site of infection (PET)” value in the assay on S. aureus [7] and in the assay on E. coli [8] was “specifically accumulated in the site of infection” each time. Besides, the “bacterial sensitivity with parametric imaging” value in the assay on live strain of bacteria (Patlak parametric mapping) was 7.0×10^5 CFU. For the same compound, the “bacterial sensitivity before parametric imaging” value in the assay on live strain of bacteria (SUV) is on record as 1.7×10^6 CFU. For the same compound, the “time post-injection to significant differences in PET signal (infection detected and differentiated)” value in the assay on live strain of bacteria (dynamic imaging, intravenous injection) was determined as 5 min. For the same compound, the “gamma counting of excised triceps brachii after scans” value with live strain of bacteria (ex vivo, infected vs inflamed tissue) is listed as “increased PET signal in the infected tissue compared to inflamed”. Also, the “bacteria reliably detected in vivo using the clinical standard SUV” value in the assay on live strain of bacteria (mouse, in vivo) is listed as 10^5 CFU. In addition, in the assay with live strain of bacteria (mouse, in vivo), the “sensitivity between E. coli and S. aureus” value is given as “did not diminish”. Moreover, in the assay on live strain of bacteria (static PET SUV correlated with CFU from excised tissue, FIG. 2C), the “bacteria reliably detected in vivo by SUV (sensitivity)” value is recorded as 5 log10 (CFU/mL). Besides, in the assay on live strain of bacteria (summed frames 45-60 minutes post-injection, FIG. 2B), the “increase of standardized uptake value (SUV) at infection compared to contralateral site of inflammation” value came out at 3.5 fold. Moreover, the “SUV / accumulation, E. coli versus S. aureus infection in the same animal” value in the assay on S. aureus [3] (E. coli 8.4×10^6 CFU right, S. aureus 8.8×10^6 CFU left, P=0.19) was “No significant differences in SUV; also recorded: indistinguishable accumulation”. Also, in the assay with S. aureus [3] (P<0.001), the “accumulation in S. aureus infection, compared to [^18F]FDS” value was “significantly higher”. In addition, the “postmortem gamma counting of tissues” value with S. aureus [3] is “uptake in both S. aureus and E. coli”; with E. coli [4] it was “uptake in both S. aureus and E. coli”. Also, the “E. coli SUV, [^18F]FMtl versus [^18F]FDS” value in the assay on E. coli [4] was “no significant differences”. In addition, in the assay on S. aureus [9] (vancomycin treatment), the “relation of PET signal to CFU burden during treatment” value is listed as “correlating closely with CFU burden”. Also, the “detection of infection by PET” value in the assay with A. baumannii was “rapidly and specifically detected”.
As for `CN[C@H](CC(C)C)C(=O)N[C@H]1C(=O)N[C@@H](CC(N)=O)C(=O)N[C@H]2C(=O)N[C@H]3C(=O)N[C@H](C(=O)N[C@H](C(=O)O)c4cc(O)cc(O)c4-c4cc3ccc4O)[C@H](O)c3ccc(c(Cl)c3)Oc3cc2cc(c3O[C@@H]2O[C@H](CO)[C@@H](O)[C@H](O)[C@H]2O[C@H]2C[C@](C)(N)[C@H](O)[C@H](C)O2)Oc2ccc(cc2Cl)[C@H]1O` [vancomycin, reference compound], the “[^18F]FMtl PET signal during treatment” value in the assay with S. aureus [9] (vancomycin 100 mg/kg every 8 hours, IP, imaged 8 hours post-infection, 24 and 72 hours post-treatment) is recorded as “diminished over the course of treatment”.
